Test results as given in patent US12122761B2, “2-azaspiro[3.4]octane derivatives as M4 agonists” (NOVARTIS AG, priority 2019, dated 2024).

What was measured:
[1] = biological target: T1, human cloned CHRM5 receptor (M5_CHO) (Homo sapiens, UniProt P08912); test: CHRM5 Ca++ Flux Assay (agonist mode, FDSS 7000EX); format: cell-based; conditions: for Emax: Percent Activity measured to EC100 of Carbachol, read-out: M5 FDSS PA; for EC50: agonist mode, geometric mean if tested more than once, read-out: M5 FDSS EC50
T1 construct: expressed in transfected cells; host or cells: CHO (M5_CHO)
T1 sequence (P08912 1-532): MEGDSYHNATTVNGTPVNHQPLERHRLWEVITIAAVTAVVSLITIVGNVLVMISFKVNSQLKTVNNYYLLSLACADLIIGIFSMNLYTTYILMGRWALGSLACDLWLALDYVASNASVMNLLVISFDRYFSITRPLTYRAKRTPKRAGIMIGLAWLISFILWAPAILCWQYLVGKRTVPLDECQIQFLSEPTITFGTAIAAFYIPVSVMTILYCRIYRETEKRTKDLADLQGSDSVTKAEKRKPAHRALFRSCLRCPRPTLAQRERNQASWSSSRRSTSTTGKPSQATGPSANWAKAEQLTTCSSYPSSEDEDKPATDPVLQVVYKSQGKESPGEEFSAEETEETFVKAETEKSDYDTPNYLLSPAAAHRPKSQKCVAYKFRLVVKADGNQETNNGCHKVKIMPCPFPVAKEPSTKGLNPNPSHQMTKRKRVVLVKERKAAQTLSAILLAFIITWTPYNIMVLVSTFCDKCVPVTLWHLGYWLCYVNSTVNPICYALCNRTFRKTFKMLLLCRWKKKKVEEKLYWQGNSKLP
How it was run: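 Agonist responses are measured as calcium mobilization in CHO-K1 cells expressing human M3 or M5, tested over an 11-point dose range in triplicate. Percent activity is normalised to carbachol at EC100.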

[2] = biological target: T2, human cloned CHRM2 receptor (M2_CHO cells) (Homo sapiens, UniProt P08172); test: CHRM2 Ca++ Flux Assay (agonist mode, FDSS 7000EX); format: cell-based; conditions: for Emax: Percent Activity measured to EC100 of Carbachol, read-out: M2 FDSS PA; for EC50: agonist mode, geometric mean if tested more than once, read-out: M2 FDSS EC50
T2 construct: expressed in transfected cells; host or cells: CHO-K1
T2 sequence (P08172 1-466): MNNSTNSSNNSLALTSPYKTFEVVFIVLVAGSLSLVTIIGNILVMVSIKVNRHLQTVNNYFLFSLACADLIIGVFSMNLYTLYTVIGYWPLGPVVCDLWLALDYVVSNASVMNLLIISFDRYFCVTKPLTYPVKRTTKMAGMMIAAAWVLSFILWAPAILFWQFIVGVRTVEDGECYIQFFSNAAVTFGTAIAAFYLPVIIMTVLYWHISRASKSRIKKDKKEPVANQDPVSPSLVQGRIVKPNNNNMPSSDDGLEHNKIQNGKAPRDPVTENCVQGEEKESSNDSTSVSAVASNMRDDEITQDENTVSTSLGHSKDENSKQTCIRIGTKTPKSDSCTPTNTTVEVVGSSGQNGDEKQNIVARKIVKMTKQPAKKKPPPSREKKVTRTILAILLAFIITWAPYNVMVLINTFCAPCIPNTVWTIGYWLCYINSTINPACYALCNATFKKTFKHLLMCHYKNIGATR
How it was run: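 Agonist-mode Ca++ flux in CHO-K1 cells stably expressing human CHRM2, dye-loaded, then held 60 min at room temperature in buffer with 20 μM ATP before compound addition; traces read over 3 minutes. Four-parameter fit of triplicate wells; percent activity relative to Carbachol EC100.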

Row | SMILES | Emax [1] [%] | EC50 [1] [nM] | Emax [2] [%] | EC50 [2] [nM]
1 | CC(C)COc1ccccc1C1CCN([C@@H]2CCC3(C2)CN(C(=O)C2COC2)C3)CC1 [Example 7F, (R)-(6-(4-(2-isobutoxyphenyl)piperidin-1-yl)-2-azaspiro[3.4]octan-2-yl)(oxetan-3-yl)methanone] | 0 | > 25000 | 0 | –
2 | O=C(C1COC1)N1CC2(CC[C@@H](N3CCC(c4ccccc4OC4CCCC4)CC3)C2)C1 [Example 7G, (R)-(6-(4-(2-(cyclopentyloxy)phenyl)piperidin-1-yl)-2-azaspiro[3.4]octan-2-yl)(oxetan-3-yl)methanone] | 0 | > 25000 | 0 | –
3 | O=C(C1COC1)N1CC2(CC[C@@H](N3CCC(c4ccccc4OCCC(F)(F)F)CC3)C2)C1 [Example 7GG, (R)-oxetan-3-yl(6-(4-(2-(3,3,3-trifluoropropoxy)phenyl)piperidin-1-yl)-2-azaspiro[3.4]octan-2-yl)methanone] | 14 | 974 | 9 | 724
4 | O=C(C1COC1)N1CC2(CC[C@@H](N3CCC(c4ccccc4OC4CCC4)CC3)C2)C1 [Example 7H, (R)-(6-(4-(2-cyclobutoxyphenyl)piperidin-1-yl)-2-azaspiro[3.4]octan-2-yl)(oxetan-3-yl)methanone] | 0 | > 25000 | 0 | –
5 | COC(C)(C)COc1ccccc1C1CCN([C@@H]2CCC3(C2)CN(C(=O)C2COC2)C3)CC1 [Example 7HH, (R)-(6-(4-(2-(2-methoxy-2-methylpropoxy)phenyl)piperidin-1-yl)-2-azaspiro[3.4]octan-2-yl)(oxetan-3-yl)methanone] | 0 | > 25000 | 16 | 154
6 | O=C(C1COC1)N1CC2(CC[C@@H](N3CCC(c4ccccc4OCC4CC4)CC3)C2)C1 [Example 7I, (R)-(6-(4-(2-(cyclopropylmethoxy)phenyl)piperidin-1-yl)-2-azaspiro[3.4]octan-2-yl)(oxetan-3-yl)methanone] | 0 | > 25000 | 16 | 123
7 | O=C(C1COC1)N1CC2(CC[C@@H](N3CCC(c4ccccc4OCC4(C(F)(F)F)CC4)CC3)C2)C1 [Example 7II, (R)-oxetan-3-yl(6-(4-(2-((1-(trifluoromethyl)cyclopropyl)methoxy)phenyl)piperidin-1-yl)-2-azaspiro[3.4]octan-2-yl)methanone] | 13 | 1640 | 12 | 6880
8 | CCOc1ccccc1C1CCN([C@@H]2CCC3(C2)CN(C(=O)C2COC2)C3)CC1 [Example 7J, (R)-(6-(4-(2-ethoxyphenyl)piperidin-1-yl)-2-azaspiro[3.4]octan-2-yl)(oxetan-3-yl)methanone] | 0 | – | 33 | 207
9 | O=C(C1COC1)N1CC2(CC[C@@H](N3CCC(c4ccccc4OCC(F)F)CC3)C2)C1 [Example 7JJ, (R)-(6-(4-(2-(2,2-difluoroethoxy)phenyl)piperidin-1-yl)-2-azaspiro[3.4]octan-2-yl)(oxetan-3-yl)methanone] | 9 | 935 | 22 | 98
10 | CC(C)Oc1ccccc1C1CCN([C@@H]2CCC3(C2)CN(C(=O)C2COC2)C3)CC1 [Example 7K, (R)-(6-(4-(2-isopropoxyphenyl)piperidin-1-yl)-2-azaspiro[3.4]octan-2-yl)(oxetan-3-yl)methanone] | 0 | > 25000 | 23 | 590
11 | O=C(C1COC1)N1CC2(CC[C@@H](N3CCC(c4ccccc4OCCC4COC4)CC3)C2)C1 [Example 7KK, (R)-oxetan-3-yl(6-(4-(2-(2-(oxetan-3-yl)ethoxy)phenyl)piperidin-1-yl)-2-azaspiro[3.4]octan-2-yl)methanone] | 0 | > 25000 | 21 | 91
12 | CC(C)(O)COc1ccccc1C1CCN([C@@H]2CCC3(C2)CN(C(=O)C2COC2)C3)CC1 [Example 7L, (R)-(6-(4-(2-(2-hydroxy-2-methylpropoxy)phenyl)piperidin-1-yl)-2-azaspiro[3.4]octan-2-yl)(oxetan-3-yl)methanone] | 0 | > 25000 | 0 | –
13 | O=C(C1COC1)N1CC2(CC[C@@H](N3CCC(c4ccccc4OC(F)(F)F)CC3)C2)C1 [Example 12A, (R)-oxetan-3-yl(6-(4-(2-(trifluoromethoxy)phenyl)piperidin-1-yl)-2-azaspiro[3.4]octan-2-yl)methanone] | 0 | > 25000 | 18 | 110000
